Results taken from the supplement of paper PMC10307832.

What was measured:
Assay in all cases: relative viability (nuclei count vs DMSO), 5 days (fraction); higher = more cells survive
[1] = tested on: A-427
Method in brief: (§1)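 Lung cancer cell lines were seeded in 1536-well plates and dosed by pin tool the next day, with either a single drug or a fixed anchor-drug dose combined with five library-drug doses (not always all listed) spaced in √10 steps. Five days later, one step fixed the cells and stained their nuclei (final 0.05% Triton X-100, 1% formaldehyde, 1 ug/ml Hoechst), and nuclei were counted on 4× images. Relative viability is the nuclei count in treated wells divided by the count in vehicle wells, and each value is the median of duplicate plates.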

[2] = tested on: EPLC-272H
Method in brief: as §1

[3] = tested on: HCC-366
Method in brief: as §1

[4] = tested on: HCC-78
Method in brief: as §1

[5] = tested on: HOP-62
Method in brief: as §1

[6] = tested on: LC-2-ad
Method in brief: as §1

[7] = tested on: LU99A
Method in brief: as §1

[8] = tested on: LXF-289
Method in brief: as §1

[9] = tested on: NCI-H1666
Method in brief: as §1

[10] = tested on: NCI-H1792
Method in brief: as §1

[11] = tested on: NCI-H1793
Method in brief: as §1

[12] = tested on: NCI-H1915
Method in brief: as §1

[13] = tested on: NCI-H1944
Method in brief: as §1

[14] = tested on: NCI-H2085
Method in brief: as §1

[15] = tested on: NCI-H2170
Method in brief: as §1

[16] = tested on: NCI-H358
Method in brief: as §1

[17] = tested on: NCI-H460
Method in brief: as §1

[18] = tested on: SW 900
Method in brief: as §1

Q: For Cc1sc2c(c1C)C(c1ccc(Cl)cc1)=N[C@@H](CC(=O)OC(C)(C)C)c1nnc(C)n1-2 [JQ1] + NC(=O)Nc1cc(-c2cccc(F)c2)sc1C(=O)N[C@H]1CCCNC1 [AZD7762] (partner 0.2 µM), which relative viability ([1]; first compound 0.04 µM) is on record?
A: The relative viability was 0.749.

Q: What about the relative viability ([1]; first compound 0.1265 µM) of the same compound?
A: Its relative viability is 0.611.

Q: What about the relative viability ([1]; first compound 0.4 µM) of the same compound?
A: The relative viability was 0.594.

Q: What about the relative viability ([1]; first compound 1.265 µM) of the same compound?
A: Its relative viability is 0.516.

Q: What about the relative viability ([1]; first compound 4 µM) of the same compound?
A: Its relative viability is 0.416.

Q: And the relative viability ([2]; first compound 0.04 µM)?
A: Its relative viability is 0.244.

Q: And the relative viability ([2]; first compound 0.1265 µM)?
A: The relative viability was 0.122.

Q: And the relative viability ([2]; first compound 0.4 µM)?
A: Its relative viability is 0.355.

Q: And the relative viability ([2]; first compound 1.265 µM)?
A: Its relative viability is 0.246.

Q: And the relative viability ([2]; first compound 4 µM)?
A: The relative viability was 0.214.

Q: And the relative viability ([3]; first compound 0.04 µM)?
A: The relative viability was 0.305.

Q: What about the relative viability ([3]; first compound 0.4 µM) of the same compound?
A: The relative viability was 0.23.

Q: And the relative viability ([3]; first compound 1.265 µM)?
A: Its relative viability is 0.146.

Q: What about the relative viability ([3]; first compound 4 µM) of the same compound?
A: The relative viability was 0.0976.

Q: What about the relative viability ([4]; first compound 0.04 µM) of the same compound?
A: Its relative viability is 0.762.

Q: And the relative viability ([4]; first compound 0.1265 µM)?
A: Its relative viability is 0.574.

Q: What about the relative viability ([4]; first compound 0.4 µM) of the same compound?
A: The relative viability was 0.559.

Q: And the relative viability ([4]; first compound 1.265 µM)?
A: Its relative viability is 0.421.

Q: What about the relative viability ([4]; first compound 4 µM) of the same compound?
A: The relative viability was 0.208.

Q: What about the relative viability ([5]; first compound 0.04 µM) of the same compound?
A: Its relative viability is 0.535.

Q: And the relative viability ([5]; first compound 0.1265 µM)?
A: The relative viability was 0.608.

Q: What about the relative viability ([5]; first compound 0.4 µM) of the same compound?
A: Its relative viability is 0.37.

Q: And the relative viability ([5]; first compound 1.265 µM)?
A: Its relative viability is 0.103.

Q: And the relative viability ([5]; first compound 4 µM)?
A: Its relative viability is 0.107.

Q: And the relative viability ([6]; first compound 0.04 µM)?
A: The relative viability was 0.793.

Q: What about the relative viability ([6]; first compound 0.1265 µM) of the same compound?
A: Its relative viability is 0.42.

Q: What about the relative viability ([6]; first compound 0.4 µM) of the same compound?
A: The relative viability was 0.374.

Q: What about the relative viability ([6]; first compound 1.265 µM) of the same compound?
A: The relative viability was 0.249.

Q: What about the relative viability ([6]; first compound 4 µM) of the same compound?
A: The relative viability was 0.204.

Q: And the relative viability ([7]; first compound 0.04 µM)?
A: The relative viability was 0.443.

Q: What about the relative viability ([7]; first compound 0.4 µM) of the same compound?
A: Its relative viability is 0.271.

Q: And the relative viability ([7]; first compound 1.265 µM)?
A: Its relative viability is 0.165.

Q: And the relative viability ([7]; first compound 4 µM)?
A: Its relative viability is 0.172.

Q: And the relative viability ([8]; first compound 0.04 µM)?
A: Its relative viability is 1.12.

Q: What about the relative viability ([8]; first compound 0.1265 µM) of the same compound?
A: The relative viability was 1.07.

Q: And the relative viability ([8]; first compound 0.4 µM)?
A: The relative viability was 0.851.

Q: What about the relative viability ([8]; first compound 1.265 µM) of the same compound?
A: Its relative viability is 1.02.

Q: And the relative viability ([8]; first compound 4 µM)?
A: The relative viability was 0.512.

Q: What about the relative viability ([9]; first compound 0.04 µM) of the same compound?
A: The relative viability was 0.869.

Q: And the relative viability ([9]; first compound 0.1265 µM)?
A: Its relative viability is 0.793.

Q: And the relative viability ([9]; first compound 0.4 µM)?
A: Its relative viability is 0.65.

Q: And the relative viability ([9]; first compound 1.265 µM)?
A: The relative viability was 0.48.

Q: What about the relative viability ([9]; first compound 4 µM) of the same compound?
A: Its relative viability is 0.488.

Q: What about the relative viability ([10]; first compound 0.04 µM) of the same compound?
A: Its relative viability is 0.62.

Q: And the relative viability ([10]; first compound 0.1265 µM)?
A: Its relative viability is 0.46.

Q: What about the relative viability ([10]; first compound 0.4 µM) of the same compound?
A: Its relative viability is 0.38.

Q: What about the relative viability ([10]; first compound 1.265 µM) of the same compound?
A: Its relative viability is 0.14.

Q: What about the relative viability ([10]; first compound 4 µM) of the same compound?
A: The relative viability was 0.0872.

Q: And the relative viability ([11]; first compound 0.04 µM)?
A: Its relative viability is 0.482.

Q: And the relative viability ([11]; first compound 0.1265 µM)?
A: The relative viability was 0.395.

Q: What about the relative viability ([11]; first compound 0.4 µM) of the same compound?
A: The relative viability was 0.824.

Q: And the relative viability ([11]; first compound 1.265 µM)?
A: The relative viability was 0.556.

Q: What about the relative viability ([11]; first compound 4 µM) of the same compound?
A: Its relative viability is 0.459.

Q: And the relative viability ([12]; first compound 0.04 µM)?
A: The relative viability was 0.729.

Q: What about the relative viability ([12]; first compound 0.4 µM) of the same compound?
A: The relative viability was 0.653.

Q: And the relative viability ([12]; first compound 1.265 µM)?
A: The relative viability was 0.437.

Q: What about the relative viability ([12]; first compound 4 µM) of the same compound?
A: Its relative viability is 0.241.

Q: And the relative viability ([13]; first compound 0.04 µM)?
A: The relative viability was 0.533.

Q: What about the relative viability ([13]; first compound 0.1265 µM) of the same compound?
A: The relative viability was 0.412.

Q: What about the relative viability ([13]; first compound 0.4 µM) of the same compound?
A: The relative viability was 0.434.

Q: And the relative viability ([13]; first compound 1.265 µM)?
A: Its relative viability is 0.365.

Q: What about the relative viability ([13]; first compound 4 µM) of the same compound?
A: Its relative viability is 0.313.

Q: What about the relative viability ([14]; first compound 0.04 µM) of the same compound?
A: Its relative viability is 0.935.

Q: And the relative viability ([14]; first compound 0.1265 µM)?
A: Its relative viability is 0.822.

Q: And the relative viability ([14]; first compound 0.4 µM)?
A: Its relative viability is 1.06.

Q: What about the relative viability ([14]; first compound 1.265 µM) of the same compound?
A: The relative viability was 0.446.

Q: And the relative viability ([14]; first compound 4 µM)?
A: The relative viability was 0.318.

Q: And the relative viability ([15]; first compound 0.04 µM)?
A: Its relative viability is 0.785.

Q: And the relative viability ([15]; first compound 0.1265 µM)?
A: Its relative viability is 0.564.

Q: What about the relative viability ([15]; first compound 0.4 µM) of the same compound?
A: The relative viability was 0.739.

Q: And the relative viability ([15]; first compound 1.265 µM)?
A: Its relative viability is 0.431.

Q: What about the relative viability ([15]; first compound 4 µM) of the same compound?
A: The relative viability was 0.379.

Q: And the relative viability ([16]; first compound 0.04 µM)?
A: Its relative viability is 0.524.

Q: And the relative viability ([16]; first compound 0.1265 µM)?
A: The relative viability was 0.565.

Q: What about the relative viability ([16]; first compound 0.4 µM) of the same compound?
A: Its relative viability is 0.538.

Q: And the relative viability ([16]; first compound 1.265 µM)?
A: The relative viability was 0.344.

Q: What about the relative viability ([16]; first compound 4 µM) of the same compound?
A: Its relative viability is 0.232.

Q: And the relative viability ([17]; first compound 0.04 µM)?
A: The relative viability was 0.594.

Q: And the relative viability ([17]; first compound 0.1265 µM)?
A: Its relative viability is 0.327.

Q: And the relative viability ([17]; first compound 0.4 µM)?
A: The relative viability was 0.644.

Q: What about the relative viability ([17]; first compound 1.265 µM) of the same compound?
A: The relative viability was 0.443.

Q: And the relative viability ([17]; first compound 4 µM)?
A: Its relative viability is 0.106.

Q: What about the relative viability ([18]; first compound 0.04 µM) of the same compound?
A: Its relative viability is 0.562.

Q: And the relative viability ([18]; first compound 0.1265 µM)?
A: The relative viability was 0.556.

Q: And the relative viability ([18]; first compound 0.4 µM)?
A: Its relative viability is 0.309.

Q: What about the relative viability ([18]; first compound 1.265 µM) of the same compound?
A: The relative viability was 0.2.

Q: What about the relative viability ([18]; first compound 4 µM) of the same compound?
A: The relative viability was 0.147.
